{
  "source": "patent US11213509B2",
  "about": "“Compositions and methods for treating traumatic brain injury” (Ischemix, LLC, priority 2017, dated 2022)",
  "key": {"[1]": {"tested_on": "fluid percussion model of diffused traumatic brain injury (TBI) in rats", "assay": "Limb placing test, fluid percussion model of diffused TBI", "assay_type": "in vivo, rat", "conditions": "vs vehicle, p<0.001, starting 1 day following TBI", "method": "On the day before TBI surgery (Day −1), rats were anesthetized with 3% isoflurane in a mixture of nitrous oxide and oxygen (2:1) for induction of anesthesia and then maintained at 1-3% isoflurane in a mixture of nitrous oxide and oxygen (2:1). The surgical site skin was shaved, and the rat was then placed in a stereotaxic frame. Buprenorphine SR, s.c, (0.9-1.2 mg/kg Zoopharm: Lot: BSR1-142111) and Cefazolin, i.p., (40-50 mg/kg; Hospira: Lot: 101D032) was given at this time. The skull was exposed through a midline incision. A parasagittal craniotomy (5 mm) using a trephine drill was performed at 1 mm posterior to bregma and 1 mm lateral to the midline (outer circumference). A sterile plastic injury tube (the plastic connector hub of a sterile needle cut 1 cm in length and trimmed to fill the craniotomy securely) was placed over the exposed dura and bonded by super glue to the skull. Dental cement was then poured around the injury tube to obtain a complete seal. After the dental cement had hardened, the injury tube was filled with sterile saline and the skin was closed by surgical clips. The animals were then returned to a clean home cage after recovery from the anesthesia.\n(§1) On the day of TBI surgery (Day 0), rats were re-anesthetized with 3% isoflurane in a mixture of nitrous oxide and oxygen (2:1), intubated, connected to a respirator and ventilated with 1-2% isoflurane in a mixture of nitrous oxide and oxygen (2:1). […] The amplitude of the resulting pressure pulse was measured in atmospheres by a pressure transducer. […]\n(§2) Dosing solutions were prepared in a blinded fashion with H, I, M, O and Z labels ready to use. […]\nLimb placing tests were divided into both forelimb and hindlimb tests. For the forelimb-placing test, the examiner held the rat close to a tabletop and scored the rat's ability to place the forelimb on the tabletop in response to whisker, visual, tactile, or proprioceptive stimulation. For the hindlimb placing test, the examiner assessed the rat's ability to place the hindlimb on the tabletop in response to tactile and proprioceptive stimulation. […]"}, "[2]": {"tested_on": "fluid percussion model of diffused traumatic brain injury (TBI) in rats", "assay": "Body swing test, fluid percussion model of diffused TBI", "assay_type": "in vivo, rat", "conditions": "45 mg/kg i.v. at 30 minutes and 24 hours after TBI; Day 28; vs vehicle, p<0.05", "method": "(§3) On the day before TBI surgery (Day −1), rats were anesthetized with 3% isoflurane in a mixture of nitrous oxide and oxygen (2:1) for induction of anesthesia and then maintained at 1-3% isoflurane in a mixture of nitrous oxide and oxygen (2:1). The surgical site skin was shaved, and the rat was then placed in a stereotaxic frame. Buprenorphine SR, s.c, (0.9-1.2 mg/kg Zoopharm: Lot: BSR1-142111) and Cefazolin, i.p., (40-50 mg/kg; Hospira: Lot: 101D032) was given at this time. The skull was exposed through a midline incision. A parasagittal craniotomy (5 mm) using a trephine drill was performed at 1 mm posterior to bregma and 1 mm lateral to the midline (outer circumference). […]\nas §1, §2\nThe rat was held approximately one inch from the base of its tail. […] A swing was recorded whenever the rat moved its head out of the vertical axis to either side. The rat must have returned to the vertical position for the next swing to be counted. Thirty (30) total swings were counted. […]"}, "[3]": {"assay": "Body weight change, fluid percussion model of diffused TBI", "assay_type": "in vivo, rat", "conditions": "7.5, 15, 30, 45 mg/kg i.v. vs vehicle; 28 days", "method": "as §3, §1, §2\nAll data were expressed as mean S.E.M. Behavioral data and weight were analyzed by repeated measures of ANOVA and/or ANCOVA. […]"}, "[4]": {"assay": "Body weight and post-operative observations, rat model of focal TBI (BCCI)", "assay_type": "in vivo", "source_text": "Adult, male, Spague-Dawley rats from Charles River were used. Animals were received at PsychoGenics and assigned unique identification numbers (tails marked). Animals were housed 2 per cage in polycarbonate rat cages equipped with microisolators and acclimated for up to 7 days. All rats were examined, handled, and weighed prior to initiation of the study to assure adequate health and suitability. During the course of the study, 12/12 light/dark cycles were maintained. The room temperature was maintained between 20 and 23° C. with a relative humidity maintained around 50%. Chow and water were provided ad libitum for the duration of the study. Animals were randomly assigned across treatment groups.\nBCCI TBI to the medial frontal cortex (MFC) was induced by a cortical contusion device (Custom Design & Fabrication, Inc [CDF], Richmond, Va.). This device creates a reliable contusion injury to the exposed area of the brain with a brass-tipped impounder. (Hoffman et al., 1994). Rats were anesthetized with isoflurane (5%) (Novaplus™), and 02 (300 cm^3/min), and mounted in a stereotaxic frame. […]\nData are presented as mean±SEM and analyzed by one-way repeated measures Analysis of variance (ANOVA) in order to test the effects of treatment on beam balance times and Morris water maze performance. […]"}},
  "data": [
    {"compound": "CC(NC(=O)C(CCC(=O)O)NC(=O)CCCCC1CCSS1)C(=O)O", "note": "[CMX-2043, N—(R)-lipoyl-glutamylalanine]", "values": [
      {"measurement": "Limb placing test recovery", "setting": "[1]; 15 mg/kg i.v. at 30 minutes and 24 hours after TBI", "result": "superior recovery compared to vehicle-treated animals"},
      {"measurement": "Limb placing test recovery", "setting": "[1]; 30 mg/kg i.v. at 30 minutes and 24 hours after TBI", "result": "superior recovery compared to vehicle-treated animals"},
      {"measurement": "Limb placing test recovery", "setting": "[1]; 45 mg/kg i.v. at 30 minutes and 24 hours after TBI", "result": "superior recovery compared to vehicle-treated animals"},
      {"measurement": "Body swing test recovery", "setting": "[2]", "result": "superior recovery compared to vehicle-treated animals"},
      {"measurement": "Body weight over time", "setting": "[3]", "result": "no significant differences"},
      {"measurement": "Body weight / weight gain", "setting": "[4]; 30 mg/kg IV at 30 minutes and about 24 hrs after injury, vs saline", "result": "no adverse effects on weight gain"},
      {"measurement": "Survival (deaths within 24 hours post-injury)", "setting": "[4]; 30 mg/kg IV, TBI-injured rats", "result": "9 surviving animals of the 11 animals treated"}
    ]}
  ]
}
